Assay results as given in PubChem BioAssay (NCI).
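Cells were grown in 96-well plates and exposed to each compound for 48 hours at five concentrations; endpoints were interpolated linearly between bracketing concentrations, or set to the highest concentration if not reached. GI50 is the concentration that inhibits growth by half. TGI is the concentration that stops growth completely.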

Experiments:
Test in all cases: inhibition of tumour cell growth, NCI panel, 48 h
[1] = tested on: NCI-H460 lung
[2] = tested on: HCC-2998 colon
[3] = tested on: NCI-H522 lung
[4] = tested on: OVCAR-3 ovarian
[5] = tested on: UACC-62 melanoma
[6] = tested on: K-562 leukemia
[7] = tested on: HS 578T breast
[8] = tested on: HL-60(TB) leukemia
[9] = tested on: OVCAR-5 ovarian
[10] = tested on: A498 renal
[11] = tested on: EKVX NSCLC
[12] = tested on: SK-MEL-2 melanoma
[13] = tested on: MDA-MB-231 breast
[14] = tested on: SF-539 CNS
[15] = tested on: HCT-15 colon
[16] = tested on: M14 melanoma
[17] = tested on: MALME-3M melanoma
[18] = tested on: HCT-116 colon
[19] = tested on: U251 CNS
[20] = tested on: NCI-H23 lung
[21] = tested on: SK-MEL-5 melanoma
[22] = tested on: NCI-H226 lung
[23] = tested on: PC-3 prostate
[24] = tested on: SF-295 CNS
[25] = tested on: RXF 393 renal
[26] = tested on: UACC-257 melanoma
[27] = tested on: SW-620 colon
[28] = tested on: SN12C renal
[29] = tested on: LOX IMVI melanoma
[30] = tested on: OVCAR-8 ovarian
[31] = tested on: IGROV1 ovarian
[32] = tested on: ACHN renal
[33] = tested on: SNB-75 CNS
[34] = tested on: HOP-92 NSCLC
[35] = tested on: HOP-62 NSCLC
[36] = tested on: UO-31 renal
[37] = tested on: OVCAR-4 ovarian
[38] = tested on: RPMI-8226 leukemia
[39] = tested on: A549 NSCLC
[40] = tested on: MDA-MB-435
[41] = tested on: SF-268 CNS
[42] = tested on: TK-10 renal
[43] = tested on: DU-145 prostate
[44] = tested on: SK-OV-3 ovarian
[45] = tested on: 786-0 renal
[46] = tested on: CCRF-CEM leukemia
[47] = tested on: T-47D breast
[48] = tested on: SNB-19 CNS
[49] = tested on: COLO 205 colon
[50] = tested on: BT-549 breast
[51] = tested on: NCI/ADR-RES ovarian
[52] = tested on: CAKI-1 renal
[53] = tested on: KM12 colon
[54] = tested on: MCF7 breast

Compound: Clc1ccc(Cc2nc3cc4ccccc4cc3[nH]2)cc1
- GI50 [1]: 2.22 µM
- TGI [1]: > 100 µM
- GI50 [2]: 15.8 µM
- TGI [2]: 89.5 µM
- GI50 [3]: 82 µM
- TGI [3]: > 100 µM
- GI50 [4]: 14.4 µM
- TGI [4]: > 100 µM
- GI50 [5]: 73.5 µM
- TGI [5]: > 100 µM
- GI50 [6]: 50.8 µM
- TGI [6]: > 100 µM
- GI50 [7]: 12.4 µM
- TGI [7]: 67.7 µM
- GI50 [8]: > 100 µM
- TGI [8]: > 100 µM
- GI50 [9]: 26.3 µM
- TGI [9]: > 100 µM
- GI50 [10]: 21.7 µM
- TGI [10]: > 100 µM
- GI50 [11]: 26.9 µM
- TGI [11]: > 100 µM
- GI50 [12]: > 100 µM
- TGI [12]: > 100 µM
- GI50 [13]: 25.4 µM
- TGI [13]: 96.1 µM
- GI50 [14]: 3.08 µM
- TGI [14]: 81.1 µM
- GI50 [15]: 5.33 µM
- TGI [15]: 26.4 µM
- GI50 [16]: 53.1 µM
- TGI [16]: > 100 µM
- GI50 [17]: 26.8 µM
- TGI [17]: > 100 µM
- GI50 [18]: 5.06 µM
- TGI [18]: 20.6 µM
- GI50 [19]: 10.5 µM
- TGI [19]: 29.6 µM
- GI50 [20]: 28.8 µM
- TGI [20]: > 100 µM
- GI50 [21]: 3.17 µM
- TGI [21]: > 100 µM
- GI50 [22]: 30.1 µM
- TGI [22]: > 100 µM
- GI50 [23]: 7.12 µM
- TGI [23]: > 100 µM
- GI50 [24]: 3.08 µM
- TGI [24]: 30 µM
- GI50 [25]: > 100 µM
- TGI [25]: > 100 µM
- GI50 [26]: > 100 µM
- TGI [26]: > 100 µM
- GI50 [27]: 6.55 µM
- TGI [27]: > 100 µM
- GI50 [28]: 94.8 µM
- TGI [28]: > 100 µM
- GI50 [29]: 13.2 µM
- TGI [29]: > 100 µM
- GI50 [30]: 7.92 µM
- TGI [30]: 37.1 µM
- GI50 [31]: 26 µM
- TGI [31]: > 100 µM
- GI50 [32]: 18.8 µM
- TGI [32]: 57.7 µM
- GI50 [33]: > 100 µM
- TGI [33]: > 100 µM
- GI50 [34]: 19.5 µM
- TGI [34]: > 100 µM
- GI50 [35]: 10.2 µM
- TGI [35]: 30.8 µM
- GI50 [36]: 54.1 µM
- TGI [36]: > 100 µM
- GI50 [37]: 22.7 µM
- TGI [37]: > 100 µM
- GI50 [38]: 9.77 µM
- TGI [38]: > 100 µM
- GI50 [39]: 6.83 µM
- TGI [39]: > 100 µM
- GI50 [40]: 27.8 µM
- TGI [40]: > 100 µM
- GI50 [41]: 10.9 µM
- TGI [41]: 75.7 µM
- GI50 [42]: 10.6 µM
- TGI [42]: 38.4 µM
- GI50 [43]: 17.1 µM
- TGI [43]: > 100 µM
- GI50 [44]: 14.7 µM
- TGI [44]: 83.3 µM
- GI50 [45]: 8.99 µM
- TGI [45]: 43.2 µM
- GI50 [46]: 2.21 µM
- TGI [46]: > 100 µM
- GI50 [47]: 23.1 µM
- TGI [47]: 88.6 µM
- GI50 [48]: 20 µM
- TGI [48]: > 100 µM
- GI50 [49]: 8.64 µM
- TGI [49]: > 100 µM
- GI50 [50]: 14.1 µM
- TGI [50]: > 100 µM
- GI50 [51]: 22.9 µM
- TGI [51]: > 100 µM
- GI50 [52]: 6.55 µM
- TGI [52]: 69.9 µM
- GI50 [53]: 9.64 µM
- TGI [53]: > 100 µM
- GI50 [54]: 17.1 µM
- TGI [54]: > 100 µM
